Data from patent US20150018411A1, “COMPOUNDS AS PPAR BETA/DELTA INHIBITORS FOR TREATING PPAR BETA/DELTA-MEDIATED DISEASES” (PHILIPPS-UNIVERSITAT MARBURG, priority 2011, published 2015).
Entries after “also recorded” stand apart in the source; their conditions may differ.

Experiments:
GST-PPAR beta/delta LBD = target: T1, GST-PPAR beta/delta LBD (Homo sapiens, UniProt Q03181); assay: Competitive in vitro ligand binding, TR-FRET, displacement of Fluormone Pan-PPAR-Green; conditions: fluorescence ratio 520 nm/495 nm
T1 construct: GST-PPAR beta/delta LBD (GST=glutathione S-transferase); purchased Invitrogen, Darmstadt, Germany
T1 sequence (Q03181 211-439 limits assumed): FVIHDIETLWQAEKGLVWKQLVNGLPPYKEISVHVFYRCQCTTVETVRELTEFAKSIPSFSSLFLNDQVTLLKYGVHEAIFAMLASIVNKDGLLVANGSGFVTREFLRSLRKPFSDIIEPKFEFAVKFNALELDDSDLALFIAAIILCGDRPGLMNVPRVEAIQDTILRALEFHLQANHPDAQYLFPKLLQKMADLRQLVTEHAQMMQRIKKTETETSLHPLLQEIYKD
Description: FIG. 1: Competitive in vitro ligand binding to PPAR beta/delta. • The displacement of ligand Fluormone® Pan-PPAR Green from recombinant GST-PPAR beta/delta ligand binding domain (LBD) by the substances of the present invention comparative compound (CC) 2, compound 1 (A), compound 2 (B), and compound 3 (C), compound 4 (D), compound 5 (E) is determined by TR-FRET analysis. Shown is the ratio of fluorescence intensity at 520 nm (fluorescein emission, excited by terbium emission) and 495 nm (terbium emission). All data points represent average values of triplicates (+/−standard deviation).
A) Competitive ligand-binding of the substances of this invention was measured in vitro using time-resolved fluorescence resonance energy transfer (TR-FRET) by competition with the commercially available fluorescent Fluormone® Pan-PPAR-Green for binding to the fusion protein GST-PPAR beta/delta LBD (GST=glutathione S-transferase; LBD=ligand binding domain) (Invitrogen, Darmstadt, Germany) in a VICTOR3V Multilabel Counter (WALLAC 1420; PerkinElmer Life and Analytical Sciences, Rodgau, Germany). The measurement was performed in 100 mM KC, 20 mM Tris pH 7.9, 0.01% Triton X100 and 1 μg/μL bovine serum albumin. GST is known to the expert in the field as suitable fusion partner for proteins. For this purpose, the ratio of fluorescence intensities at 520 nm (fluorescein emission excited by terbium emission) and at 495 nm (terbium emission) is determined.

PPAR beta/delta = target: T2, PPAR beta/delta (Homo sapiens, UniProt Q03181); assay: Agonist-induced transcriptional activity, luciferase reporter in WPMY-1 cells; assay type: cell-based; conditions: human WPMY-1 myofibroblasts, 500 nM substance, 500 nM agonist L165041
T2 construct: expressed in transfected cells; host or cells: WPMY-1 human myofibroblasts, transient transfection with PEI
T2 sequence (Q03181 1-441): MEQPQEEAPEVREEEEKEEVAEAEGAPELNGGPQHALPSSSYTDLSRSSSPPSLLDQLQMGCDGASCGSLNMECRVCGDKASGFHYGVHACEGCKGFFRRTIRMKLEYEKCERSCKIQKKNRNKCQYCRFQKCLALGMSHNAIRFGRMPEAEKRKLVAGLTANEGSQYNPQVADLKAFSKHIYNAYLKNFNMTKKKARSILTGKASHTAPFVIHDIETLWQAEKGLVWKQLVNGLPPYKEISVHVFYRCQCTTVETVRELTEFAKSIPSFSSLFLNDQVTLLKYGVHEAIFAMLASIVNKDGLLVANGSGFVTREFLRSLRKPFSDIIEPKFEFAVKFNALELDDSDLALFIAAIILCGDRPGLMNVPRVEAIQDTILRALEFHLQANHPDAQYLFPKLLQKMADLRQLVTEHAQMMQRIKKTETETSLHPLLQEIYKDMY
Description: FIG. 4: Effect of the substances of this invention comparative compound (CC) 2, compound 1, compound 5, compound 2 and compound 3 on the agonist-induced transcriptional activity of PPAR subtypes alpha (A), beta/delta (B) and gamma (C). • WPMY-1 cells are transiently transfected with a luciferase reporter plasmid. Four hours after transfection, cells are treated for 48 hours with the respective antagonist (500 nM), followed by a treatment with 300 nM of PPAR alpha agonist GW7647 (A), 500 nM of PPAR beta/delta agonist L165041 (B) or 300 nM of PPAR gamma agonist GW1929 (C). The relative induction is represented by the luciferase activity of the agonist-treated transfected cells in relation to solvent-treated transfected cells. Asterisks (**, *) indicate significant differences to untreated cells (after t-test; **: p<0.01; *: p<0.05). GW7647 is commercially available from Sigma-Aldrich (Steinheim, Germany). L165041 and GW1929 can be obtained from Biozol (Eching, Germany).
D) The influence of substances of this invention on the agonist-induced transcriptional activity of PPAR subtypes alpha, beta/delta or gamma is determined in WPMY-1 myofibroblasts transfected transiently with a luciferase reporter plasmid (LexA system) using polyethyleneimine (PEI) according to a method known to the expert. As agonists, substances GW7647 for PPAR alpha or L165041 for PPAR beta/delta or GW1929 for PPAR gamma known to the expert are used. WPMY-1 myofibroblast cells are initially cultured for example in a 12-well plate in DMEM medium (DMEM: Dulbecco's Modified Eagle Medium) according to a method known to the expert and to a confluence of 70% to 80%, and subsequently transfected with 2.5 μg of plasmid-DNA containing the luciferase reporter plasmid, expression plasmids for the respective PPAR subtypes and the Renilla-luciferase plasmid pRL-SV40 (Promega, Mannheim, Germany), and 2.5 μl PEI (1:1000 dilution, pH 7). Four hours after transfection, the cells are treated for 48 hours with 500 nM of the substances of this invention, and 24 later with 300 nM (GW7647 or GW1929, respectively) or 500 nM (L165041) of the respective agonist at 37° C. and 5% CO2 in an incubator. The luciferase assay is performed 48 hours after the first treatment according to the commercial method of the “dual-well-system” (pjk GmbH, Kleinblittersdorf, Germany), whereby for a normalization, not only the luciferase-, but also the Renilla activity is measured. Cells are initially lysed for this measurement, and 20 μl of the lysate is transferred into a white 96-well plate (Fisher Scientific, Hamburg, Germany). […] Mean values and standard deviation are calculated from values of three independent measurements.

Structure (SMILES)	competition with Fluormone Pan-PPAR-Green for binding to GST-PPAR beta/delta LBD (GST-PPAR beta/delta LBD)	agonist-induced transcriptional activity of PPAR beta/delta (luciferase induction) (PPAR beta/delta)
CCCCCCNc1ccc(NS(=O)(=O)c2ccsc2C(=O)OC)c(OC)c1 [compound 1, methyl 3-(N-(4-(hexylamino)-2-methoxyphenyl)sulfamoyl)thiophene-2-carboxylate]	significant competition efficacy; also recorded: significant competition efficiency	inhibited in a PPAR subtype-specific manner
COC(=O)c1sccc1S(=O)(=O)Nc1ccc(NC(C)(C)C)cc1OC [compound 5, methyl 3-(N-(4-(tert-butylamino)-2-methoxyphenyl)sulfamoyl)thiophene-2-carboxylate]	significant competition efficacy; also recorded: significant competition efficiency	inhibited in a PPAR subtype-specific manner
CCCCCCNc1ccc(NS(=O)(=O)c2ccsc2C(=O)OC)cc1OC [compound 2, methyl 3-(N-(4-(hexylamino)-3-methoxyphenyl)sulfamoyl)thiophene-2-carboxylate]	significant competition efficacy; also recorded: significant competition efficiency	inhibited in a PPAR subtype-specific manner
